PMC10388363, “Novel 1,4-Dihydropyridines as Specific Binders and Activators of SIRT3 Impair Cell Viability and Clonogenicity and Downregulate Hypoxia-Induced Targets in Cancer Cells” (Journal of Medicinal Chemistry, 2023)

Legend:
human SIRT1 = target: T1, human SIRT1 (Homo sapiens, UniProt Q96EB6); experiment: PncA/GDH-coupled deacylation assay, SIRT1 activation (p53-acK381 substrate); type: biochemical; details: for effect on SIRT1: 10 μM compound; for SIRT1 activation: 100 μM compound
T1 construct: using constructs in pET15b (Sirt1); His tag (N, cleaved yes); made in house; host or cells: Escherichia coli
T1 sequence (Q96EB6 1-747): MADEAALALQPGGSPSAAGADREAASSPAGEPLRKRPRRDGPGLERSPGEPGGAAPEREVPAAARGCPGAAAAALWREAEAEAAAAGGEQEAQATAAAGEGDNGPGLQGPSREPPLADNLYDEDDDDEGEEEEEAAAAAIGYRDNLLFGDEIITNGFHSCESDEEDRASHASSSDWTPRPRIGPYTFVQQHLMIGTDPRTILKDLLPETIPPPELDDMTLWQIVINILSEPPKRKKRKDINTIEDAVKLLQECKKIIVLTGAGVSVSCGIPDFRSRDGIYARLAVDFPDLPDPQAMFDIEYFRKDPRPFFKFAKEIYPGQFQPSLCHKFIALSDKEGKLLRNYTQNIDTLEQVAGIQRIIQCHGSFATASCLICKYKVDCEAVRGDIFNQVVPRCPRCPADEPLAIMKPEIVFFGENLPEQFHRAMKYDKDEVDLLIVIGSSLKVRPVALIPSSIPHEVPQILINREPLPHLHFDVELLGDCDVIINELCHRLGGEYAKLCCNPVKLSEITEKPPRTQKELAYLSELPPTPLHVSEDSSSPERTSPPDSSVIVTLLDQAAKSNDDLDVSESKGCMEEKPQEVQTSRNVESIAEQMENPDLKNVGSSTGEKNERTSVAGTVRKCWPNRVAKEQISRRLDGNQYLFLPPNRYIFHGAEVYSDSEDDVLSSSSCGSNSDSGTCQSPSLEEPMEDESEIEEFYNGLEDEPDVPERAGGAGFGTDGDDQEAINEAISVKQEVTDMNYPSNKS
Protocol: To avoid artifacts and other non-specific effects, instead of the “Fluor-de-Lys” (FdL) substrate, we used a PncA/GDH-coupled deacylation assay by measuring the NADPH oxidation to NADP^+ that relies on isoform-specific non-modified physiological acetyl or succinyl substrates [p53-acK381 for SIRT1, α-tubulin-[…] for SIRT2, acetyl-CoA synthetase 2 (ACS2)-acK642 for SIRT3, and CPS1-succK537 for SIRT5].[59] The assays were carried out using the 1,4-DHP derivatives 2a–n and 3a–d against SIRT3, including the prototype compounds 2 and 3 as positive controls.
N-terminally his-tagged human sirtuins were expressed in Escherichia coli using constructs in pET15b (Sirt1) or pET151D/Topo (Sirt3-114-380 and Sirt5-34-302).[4],[59],[61] Sirt2-43-356 was expressed from a modified pET19b containing a TEV protease cleavage site and an N-terminal SUMO-tag.[59],[79] Proteins were expressed and purified as described elsewhere.[59],[61],[79]−[81] In brief, proteins were expressed in E. coli, crude extracts were cleared by centrifugation, and the proteins were affinity purified using NiNTA beads.
Sirtuin deacylation activities were analyzed by using a coupled enzymatic assay as described in.[59],[82] For initial modulation screenings, substrate peptide specificity analysis, and compound titrations, 1.5 μM sirtuin was incubated with 50 μM substrate peptide and 100 μM NAD^+ in absence or presence of 10 μM, 100 μM or the indicated concentration of 1,4-DHP at a final DMSO concentration of 5%. For kinetic experiments, 1.5 μM sirtuin was incubated with saturating concentrations of either substrate peptide (0.4 mM) or NAD^+ (2 mM), with the second substrate’s concentration being varied in absence or presence of 200 μM 1,4-DHP at a final concentration of 5% DMSO. Potential 1,4-DHP effects on the coupled enzymes GDH and nicotinamidase were tested in control assays containing 50 μM NAM instead of the substrate peptide.

MDA-MB-231 cells = experiment: Scratch assay, MDA-MB-231 cell migration; type: cell-based, human; details: 50 μM, 48 h
Protocol: Next, a scratch assay on MDA-MB-231 cells after treatment with 3c and 3d at 50 μM for 48 h was performed to assess their effect on cell migration (Figure 14).
Cell lines were maintained in culture medium (as above) until reaching 100% confluence, then shifted to a serum-depleted culture medium to inhibit cell proliferation, as described in Magistri et al.;[83] a scratch wound was created on the cell layer using a micropipette tip. Micrographs were taken at 0 and 48 h after the scratch. Cell-devoid areas at 0 and 48 h after the scratch were quantified through the Fiji ImageJ image processing package.

effect on SIRT1 (human SIRT1) | SIRT1 activation (human SIRT1) [%] | SMILES | MDA-MB-231 cell migration (MDA-MB-231 cells) | impairment of MDA-MB-231 migration rate (MDA-MB-231 cells)
negligible effects | 164 | CCOC(=O)C1=CN(C(=O)c2cccc(OC)c2)C=C(C(=O)OCC)C1c1ccccc1 [Compound 3a, Diethyl 1-(3-methoxybenzoyl)-4-phenyl-1,4-dihydropyridine-3,5-dicarboxylate] |  | 
negligible effects | 156 | CCOC(=O)C1=CN(C(=O)c2ccc(OC)c(OC)c2)C=C(C(=O)OCC)C1c1ccccc1 [Compound 3c, Diethyl 1-(3,4-dimethoxybenzoyl)-4-phenyl-1,4-dihydropyridine-3,5-dicarboxylate] | nicely reduce | 

SMILES | effect on SIRT1 (human SIRT1) | SIRT1 activation (human SIRT1) [%] | MDA-MB-231 cell migration (MDA-MB-231 cells) | impairment of MDA-MB-231 migration rate (MDA-MB-231 cells)
CCOC(=O)C1=CN(C(=O)c2cc(OC)cc(OC)c2)C=C(C(=O)OCC)C1c1ccccc1 [Compound 3d, Diethyl 1-(3,5-dimethoxybenzoyl)-4-phenyl-1,4-dihydropyridine-3,5-dicarboxylate] | negligible effects | 130 | nicely reduce | over 75%
